The source of these data is ChEMBL document CHEMBL4706756, “Combination Therapy of RNA Interference and Small Molecules for Treating Hepatitis B Virus Infection” (ACS Med Chem Lett, 2021).

Active and inactive are the calls of the source. The rule behind the calls is not given here.

In data set [1] the test system is Hepatitis B virus. The data set is described as follows: Antiviral activity against HBV infected in CHB patient assessed as reduction in HBsAg level at 250 mg, po administered daily from 1 to 84 days in presence of RNAi component and NA relative to control. The data set is classed as functional. Particulars: time 1-84 day. The arrangement: scale not given: the % may be the effect or the level left.

Data set [2] relates to Hepatitis B virus. In words: Antiviral activity against HBV infected in CHB patient assessed as reduction in viral DNA level at 250 mg, po administered daily from 1 to 84 days in presence of RNAi component and NA. The data set is classed as functional, organism-based. Particulars: time 1-84 day.
Data set [3] relates to Hepatitis B virus. In words: Antiviral activity against HBV infected in CHB patient assessed as reduction in viral RNA level at 250 mg, po administered daily from 1 to 84 days in presence of RNAi component and NA. The data set is classed as functional, organism-based. Particulars: time 1-84 day.
Data set [4] deals with Hepatitis B virus. The data set is described as follows: Antiviral activity against HBV infected in CHB patient assessed as reduction in HBeAg level at 250 mg, po administered daily from 1 to 84 days in presence of RNAi component and NA. Particulars: time 1-84 day. The data set is classed as functional, organism-based.
Data set [5] has as its system Hepatitis B virus. In words: Antiviral activity against HBV infected in CHB patient assessed as reduction in HBcrAg level at 250 mg, po administered daily from 1 to 84 days in presence of RNAi component and NA. In kind it is functional, organism-based. To be noted: time 1-84 day.
The test system of data set [6] is Hepatitis B virus. In words: Antiviral activity against HBV infected in HBeAg-positive CHB patient assessed as reduction in HBsAg level at 250 mg, po administered daily from 1 to 84 days in presence of RNAi component and NA. The data set is classed as functional, organism-based. To be noted: time 1-84 day.
Data set [7] has as its system Hepatitis B virus. The data set is described as follows: Antiviral activity against HBV infected in HBeAg-negative CHB patient assessed as reduction in HBsAg level at 250 mg, po administered daily from 1 to 84 days in presence of RNAi component and NA. To be noted: time 1-84 day. The data set is classed as functional, organism-based.
Data set [8] in a line: Toxicity in HBV infected CHB patient at 250 mg, po administered daily from 1 to 84 days in presence of RNAi component and NA. The data set is classed as organism-based. To be noted: human, in vivo, time 1-84 day.

For `C[C@H](NS(=O)(=O)c1cc(C(=O)Nc2ccc(F)c(C#N)c2)n(C)c1)C(F)(F)F` [BERSACAPAVIR], the values for the Activity in data set [1] and in data set [8] were 90% and “Non-Toxic”, respectively. Moreover, the outcome in data set [2], in data set [3], in data set [4], in data set [5], in data set [6] and in data set [7] was Active.
